Results on seven compounds are retold here after patent US20120220581A1, “IMIDAZO[1,2-b]PYRIDAZINE DERIVATIVES AND THEIR USE AS PDE10 INHIBITORS” (Janssen-Cilag, S.A., priority 2009, published 2012).

Like-named read-outs stand apart in the source and are kept apart here.

The target of assay [1] is T1, Rat recombinant PDE10A (rPDE10A2) (Rattus norvegicus, UniProt Q9QYJ6).
T1 construct: inferred from the Ni metal chelate purification; made in house; host or cells: Sf9 insect cells (baculovirus)
T1 sequence (Q9QYJ6 1-794): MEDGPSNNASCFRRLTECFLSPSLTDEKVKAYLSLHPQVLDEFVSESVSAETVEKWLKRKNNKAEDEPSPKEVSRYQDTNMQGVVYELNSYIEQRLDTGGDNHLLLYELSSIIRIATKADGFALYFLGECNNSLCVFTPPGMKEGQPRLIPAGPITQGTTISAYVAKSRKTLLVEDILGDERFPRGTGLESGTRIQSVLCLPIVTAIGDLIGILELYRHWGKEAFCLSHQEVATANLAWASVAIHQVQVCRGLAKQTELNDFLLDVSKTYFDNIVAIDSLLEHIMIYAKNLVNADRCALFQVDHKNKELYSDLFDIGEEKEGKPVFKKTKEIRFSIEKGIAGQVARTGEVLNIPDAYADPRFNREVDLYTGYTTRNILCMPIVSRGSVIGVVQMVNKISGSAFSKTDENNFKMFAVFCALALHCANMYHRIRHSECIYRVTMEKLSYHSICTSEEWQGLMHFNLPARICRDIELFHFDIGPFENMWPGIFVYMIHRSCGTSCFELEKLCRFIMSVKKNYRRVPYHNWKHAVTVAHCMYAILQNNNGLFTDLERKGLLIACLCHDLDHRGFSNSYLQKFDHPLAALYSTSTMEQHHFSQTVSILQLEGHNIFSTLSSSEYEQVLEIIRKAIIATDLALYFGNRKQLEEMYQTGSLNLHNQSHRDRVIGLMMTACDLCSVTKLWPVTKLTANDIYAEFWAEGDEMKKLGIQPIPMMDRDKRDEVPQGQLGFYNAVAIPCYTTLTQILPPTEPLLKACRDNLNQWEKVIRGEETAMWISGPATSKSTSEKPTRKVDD
Description: In vitro assay PDE10A (SPA, 3H-cAMP). It is filed as biochemical. In short, it runs like this: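 Scintillation proximity read-out (cpm) of 3H-cAMP hydrolysis after 60 min at room temperature, with enzyme-free blanks and 1% DMSO controls. Enzyme was Sf9-expressed, Ni-sepharose-purified rat rPDE10A2; substrate 60 nM cAMP with tracer, buffer Tris pH 7.8 containing MgCl2 and EGTA.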

In a further assay the target is PDE4D3 (Homo sapiens, UniProt Q08499). Nature of the assay: In vitro PDE selectivity assay (SPA), PDE4D3. It is filed as biochemical. The following applies: hPDE4D3; read-out: PDE 4D3 (expressed as pIC50) (converted). Here is the method: (§1) Rat recombinant PDE10A (rPDE10A2) was expressed in Sf9 cells using a recombinant rPDE10A baculovirus construct. Cells were harvested after 48 h of infection and the rPDE10A protein was purified by metal chelate chromatography on Ni-sepharose 6FF. Tested compounds were dissolved and diluted in 100% DMSO to a concentration 100 fold of the final concentration in the assay. Compound dilutions (0.4 μl) were added in 384 well plates to 20 μl of incubation buffer (50 mM Tris pH 7.8, 8.3 mM MgCl2, 1.7 mM EGTA). 10 μl of rPDE10A enzyme in incubation buffer was added and the reaction was started by addition of 10 μl substrate to a final concentration of 60 nM cAMP and 0.008 μCi ^3H-cAMP. The reaction was incubated for 60 minutes at room temperature. After incubation, the reaction was stopped with 20 μl of stop solution consisting of 17.8 mg/ml PDE SPA (scintillation proximity assay) beads. After sedimentation of the beads during 30 minutes the radioactivity was measured in a Perkin Elmer Topcount scintillation counter and results were expressed as cpm. For blanc values the enzyme was omitted from the reaction and replaced by incubation buffer. Control values were obtained by addition of a final concentration of 1% DMSO instead of compound. The same assay principle is applied for the measurement of the affinity of the compound for other members of the PDE family with appropriate modifications in incubation buffer, substrate concentration, incubation time and stop solution. An overview of the different protocols is presented in table A. A best fit curve is fitted by a minimum sum of squares method to the plot of % of control value substracted with blanc value versus compound concentration and the half maximal inhibitory concentration (IC50) value is derived from this curve.
(§2) The compounds of the invention are generally selective for PDE10 compared to other PDEs and there are a few that also have affinity for PDE1B1, 4D3 and 5A3.

In the next assay the target is PDE5A3 (Homo sapiens, UniProt O76074). Nature of the assay: In vitro PDE selectivity assay (SPA), PDE5A3. The assay is classed as biochemical. To be noted: hPDE5A3; read-out: PDE 5A3 (expressed as pIC50) (converted). Here is the method: as §1, §2
Assay [2] addresses other members of the PDE family (Homo sapiens, UniProt O00408). Nature of the assay: In vitro PDE selectivity assay (SPA), other members of the PDE family (protocols in Table A). To be noted: hPDE2A; read-out: PDE 2A (expressed as pIC50) (converted). The assay is classed as biochemical. In short, it runs like this: (§3)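 Inhibition of each PDE isoform was measured by scintillation proximity assay with ³H-cyclic nucleotide substrate, using incubation buffer, substrate concentration, incubation time and stop solution adapted per isoform. Compounds were tested in dose-response against 1% DMSO controls and enzyme-free blanks. IC50 came from a least-squares fit of blank-subtracted % of control versus concentration.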

Assay [3] has as its target other members of the PDE family (Homo sapiens, UniProt O76083). The assay is described as above. The assay is classed as biochemical. The following applies: hPDE9A; read-out: PDE 9A (expressed as pIC50) (converted). In outline: as §3
For assay [4], the target named is other members of the PDE family (Homo sapiens, UniProt Q13946). Described as above. The following applies: hPDE7A1; read-out: PDE 7A (expressed as pIC50) (converted). It is filed as biochemical. In outline: as §3
Assay [5] concerns the target other members of the PDE family (Homo sapiens, UniProt Q14432). The description is as above. It is filed as biochemical. The following applies: hPDE3A; read-out: PDE 3A (expressed as pIC50) (converted). In short, it runs like this: as §3
Assay [6] addresses other members of the PDE family (Homo sapiens, UniProt Q9HCR9). The description is as above. To be noted: hPDE11A4; read-out: PDE 11A4 (expressed as pIC50) (converted). The assay is classed as biochemical. In short, it runs like this:
as §3

Assay [7] concerns apomorphine-induced stereotypy in rats. Description: Apomorphine-induced stereotypy in rats (APO). It is filed as in vivo. The following applies: Rattus norvegicus; dose at which 50% of the tested animals show the effect; ≧: active in 30% of the animals at the indicated dose; ≦: active in 60%. As for the experimental part: Apomorphine (1.0 mg/kg, i.v.)-induced stereotypy (compulsive sniffing, licking, chewing) was scored every 5 min over the first hour after injection of apomorphine, following a 1 hour interval pre-treatment with the test compound. The score system was: (3) pronounced, (2) moderate, (1) slight, and (0) absent.

The target of another assay is T2, PDE10 (Rattus norvegicus, UniProt Q9QYJ6).
T2 construct: from tissue; host or cells: rat brain sections, striatum (in vivo dosing, ex vivo autoradiography)
T2 sequence (Q9QYJ6 1-794): T1 sequence (Q9QYJ6 1-794)
Description: PDE10 occupancy ([3H]-MP-10, striatum). It is filed as in vivo. The following applies: for ED50 / receptor occupancy at 10 mg/kg: rat, sc; for ED50: dose response, subcutaneous administration, read-out: PDE10 in vivo occupancy ED50 sc; for receptor occupancy at 10 mg/kg: single dose 10 mg/kg, subcutaneous, read-out: SD sc % occupancy at 10 mg/kg. As for the experimental part:
Dose-response or single dose experiments were performed to measure PDE10 occupancy 1 hour after subcutaneous (s.c.) or oral (p.o.) administration. Male Wistar rats (200 g) were treated by s.c. or p.o. administration of various PDE10 inhibitors. The PDE10 radioligand [^3H]-MP-10 (10 μCi/animal) was injected intravenously (i.v.) 30 minutes before sacrifice. Brains were immediately removed from the skull and rapidly frozen. Twenty μm-thick brain sections were cut using a cryostat-microtome, thaw-mounted on microscope slides and loaded in a β-imager to quantify PDE10 occupancy in the striatum.

[8] abbreviates: Table 4 in vitro selectivity, read-out: PDE 10A2 (expressed as pIC50) (converted).
Where [9] appears, read: pIC50 corresponds to the −log IC50 expressed in mol/L, read-out: PDE10A2 pIC50 (converted).

Chain of other members of the PDE family (Homo sapiens, UniProt Q9HCR9) (Q9HCR9 whole entry): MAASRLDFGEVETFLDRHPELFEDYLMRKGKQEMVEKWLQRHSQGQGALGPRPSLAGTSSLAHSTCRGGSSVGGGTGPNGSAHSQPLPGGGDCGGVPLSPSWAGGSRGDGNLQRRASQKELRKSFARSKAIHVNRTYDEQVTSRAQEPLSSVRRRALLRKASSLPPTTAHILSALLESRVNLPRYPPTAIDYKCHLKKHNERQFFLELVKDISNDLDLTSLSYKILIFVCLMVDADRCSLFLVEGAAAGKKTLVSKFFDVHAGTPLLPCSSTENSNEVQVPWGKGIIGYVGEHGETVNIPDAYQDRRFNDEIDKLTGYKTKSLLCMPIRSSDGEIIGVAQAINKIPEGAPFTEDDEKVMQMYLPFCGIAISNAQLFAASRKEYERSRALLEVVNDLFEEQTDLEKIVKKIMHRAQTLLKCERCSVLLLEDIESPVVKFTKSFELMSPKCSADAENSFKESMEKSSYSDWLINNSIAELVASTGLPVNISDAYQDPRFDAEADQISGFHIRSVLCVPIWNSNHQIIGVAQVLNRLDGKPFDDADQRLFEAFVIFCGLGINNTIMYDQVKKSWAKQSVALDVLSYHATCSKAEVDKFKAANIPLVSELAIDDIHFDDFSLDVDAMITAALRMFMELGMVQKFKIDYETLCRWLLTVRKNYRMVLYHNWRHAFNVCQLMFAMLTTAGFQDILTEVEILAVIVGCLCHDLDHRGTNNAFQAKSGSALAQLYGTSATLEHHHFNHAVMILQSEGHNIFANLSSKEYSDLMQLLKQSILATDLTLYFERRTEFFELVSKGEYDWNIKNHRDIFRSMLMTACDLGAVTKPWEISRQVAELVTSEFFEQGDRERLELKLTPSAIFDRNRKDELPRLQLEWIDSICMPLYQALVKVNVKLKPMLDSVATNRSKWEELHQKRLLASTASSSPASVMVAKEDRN
Chain of other members of the PDE family (Homo sapiens, UniProt O00408) (O00408 whole entry, canonical isoform): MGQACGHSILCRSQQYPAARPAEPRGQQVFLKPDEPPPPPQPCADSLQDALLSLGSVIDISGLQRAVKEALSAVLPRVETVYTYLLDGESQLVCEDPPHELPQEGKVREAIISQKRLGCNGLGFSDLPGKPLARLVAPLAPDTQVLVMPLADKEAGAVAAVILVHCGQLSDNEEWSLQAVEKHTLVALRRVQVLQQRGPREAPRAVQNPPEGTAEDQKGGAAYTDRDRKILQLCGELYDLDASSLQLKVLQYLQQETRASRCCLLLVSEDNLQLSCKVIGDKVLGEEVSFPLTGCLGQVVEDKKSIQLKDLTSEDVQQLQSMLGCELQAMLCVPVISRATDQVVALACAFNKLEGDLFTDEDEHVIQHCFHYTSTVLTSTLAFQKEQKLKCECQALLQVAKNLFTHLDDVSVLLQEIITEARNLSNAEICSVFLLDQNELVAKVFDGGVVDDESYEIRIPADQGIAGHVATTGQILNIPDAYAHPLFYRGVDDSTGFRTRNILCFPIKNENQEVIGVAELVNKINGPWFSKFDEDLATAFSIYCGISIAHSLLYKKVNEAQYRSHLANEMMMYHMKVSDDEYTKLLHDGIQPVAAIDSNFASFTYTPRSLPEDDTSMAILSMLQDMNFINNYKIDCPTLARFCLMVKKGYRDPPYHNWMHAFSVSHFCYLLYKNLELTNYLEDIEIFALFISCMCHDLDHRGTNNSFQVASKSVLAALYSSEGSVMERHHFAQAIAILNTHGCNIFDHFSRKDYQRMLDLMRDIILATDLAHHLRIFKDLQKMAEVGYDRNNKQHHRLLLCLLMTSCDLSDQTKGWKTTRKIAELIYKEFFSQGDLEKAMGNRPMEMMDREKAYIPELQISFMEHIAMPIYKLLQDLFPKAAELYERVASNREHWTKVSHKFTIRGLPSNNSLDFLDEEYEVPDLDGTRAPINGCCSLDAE
Chain of PDE4D3 (Q08499 1-673 isoform Q08499-2): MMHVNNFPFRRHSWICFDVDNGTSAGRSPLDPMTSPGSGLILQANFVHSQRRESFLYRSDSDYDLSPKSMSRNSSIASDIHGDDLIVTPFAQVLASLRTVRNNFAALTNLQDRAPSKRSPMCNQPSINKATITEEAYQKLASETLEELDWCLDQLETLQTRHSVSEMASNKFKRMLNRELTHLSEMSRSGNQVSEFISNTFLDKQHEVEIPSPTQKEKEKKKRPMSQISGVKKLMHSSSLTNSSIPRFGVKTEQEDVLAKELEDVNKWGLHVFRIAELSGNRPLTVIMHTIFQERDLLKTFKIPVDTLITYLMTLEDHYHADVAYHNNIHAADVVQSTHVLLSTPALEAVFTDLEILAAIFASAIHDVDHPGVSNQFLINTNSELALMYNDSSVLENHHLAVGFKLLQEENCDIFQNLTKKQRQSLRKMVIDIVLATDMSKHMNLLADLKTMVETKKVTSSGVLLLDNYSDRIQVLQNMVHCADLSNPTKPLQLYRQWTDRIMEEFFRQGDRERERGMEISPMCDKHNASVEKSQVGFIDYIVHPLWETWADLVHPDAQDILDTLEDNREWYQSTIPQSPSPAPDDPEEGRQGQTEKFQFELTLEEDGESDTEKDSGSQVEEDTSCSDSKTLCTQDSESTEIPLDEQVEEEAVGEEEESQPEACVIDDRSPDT
Chain of other members of the PDE family (Homo sapiens, UniProt Q13946) (Q13946 whole entry): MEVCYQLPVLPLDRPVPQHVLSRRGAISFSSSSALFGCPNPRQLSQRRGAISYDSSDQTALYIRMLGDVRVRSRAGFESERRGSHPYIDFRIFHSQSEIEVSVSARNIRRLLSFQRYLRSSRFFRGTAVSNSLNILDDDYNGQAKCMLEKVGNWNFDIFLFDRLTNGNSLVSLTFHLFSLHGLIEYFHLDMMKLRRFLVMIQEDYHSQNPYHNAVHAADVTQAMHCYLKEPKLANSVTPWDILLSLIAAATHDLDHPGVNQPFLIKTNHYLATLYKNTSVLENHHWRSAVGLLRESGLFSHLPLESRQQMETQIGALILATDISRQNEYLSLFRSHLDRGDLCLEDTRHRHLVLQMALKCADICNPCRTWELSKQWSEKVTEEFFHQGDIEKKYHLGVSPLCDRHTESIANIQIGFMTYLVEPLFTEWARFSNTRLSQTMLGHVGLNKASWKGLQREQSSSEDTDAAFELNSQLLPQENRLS
Chain of other members of the PDE family (Homo sapiens, UniProt Q14432) (Q14432 whole entry): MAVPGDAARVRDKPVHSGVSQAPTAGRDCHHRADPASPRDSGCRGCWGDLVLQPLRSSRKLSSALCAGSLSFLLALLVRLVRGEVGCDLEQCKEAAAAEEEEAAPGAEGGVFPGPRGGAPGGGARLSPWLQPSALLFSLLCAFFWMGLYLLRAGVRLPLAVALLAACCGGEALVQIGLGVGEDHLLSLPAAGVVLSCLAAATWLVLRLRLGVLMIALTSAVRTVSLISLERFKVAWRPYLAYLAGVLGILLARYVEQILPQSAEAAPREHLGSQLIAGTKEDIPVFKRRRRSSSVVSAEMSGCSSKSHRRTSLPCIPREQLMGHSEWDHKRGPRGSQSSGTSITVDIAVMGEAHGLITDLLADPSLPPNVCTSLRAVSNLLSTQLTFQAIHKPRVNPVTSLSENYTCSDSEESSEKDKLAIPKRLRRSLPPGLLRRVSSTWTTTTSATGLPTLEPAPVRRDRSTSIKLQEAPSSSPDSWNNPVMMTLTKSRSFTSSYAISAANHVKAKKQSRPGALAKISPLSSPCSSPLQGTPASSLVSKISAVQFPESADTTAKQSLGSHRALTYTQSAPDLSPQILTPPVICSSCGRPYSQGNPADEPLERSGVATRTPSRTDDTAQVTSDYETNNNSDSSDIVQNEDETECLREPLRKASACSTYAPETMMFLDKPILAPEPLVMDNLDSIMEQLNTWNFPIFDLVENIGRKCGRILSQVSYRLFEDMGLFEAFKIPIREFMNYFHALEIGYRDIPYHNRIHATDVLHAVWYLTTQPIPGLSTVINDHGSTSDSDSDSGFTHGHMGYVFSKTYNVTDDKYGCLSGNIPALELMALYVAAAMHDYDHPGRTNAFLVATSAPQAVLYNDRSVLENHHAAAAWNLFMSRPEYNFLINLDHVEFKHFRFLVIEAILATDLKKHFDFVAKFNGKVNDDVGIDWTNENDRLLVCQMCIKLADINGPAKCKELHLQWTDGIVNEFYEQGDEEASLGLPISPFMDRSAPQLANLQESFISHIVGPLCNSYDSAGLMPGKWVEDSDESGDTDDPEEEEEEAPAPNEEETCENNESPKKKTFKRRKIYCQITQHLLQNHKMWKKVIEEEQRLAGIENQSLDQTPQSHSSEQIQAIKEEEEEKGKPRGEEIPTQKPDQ
Chain of other members of the PDE family (Homo sapiens, UniProt O76083) (O76083 whole entry): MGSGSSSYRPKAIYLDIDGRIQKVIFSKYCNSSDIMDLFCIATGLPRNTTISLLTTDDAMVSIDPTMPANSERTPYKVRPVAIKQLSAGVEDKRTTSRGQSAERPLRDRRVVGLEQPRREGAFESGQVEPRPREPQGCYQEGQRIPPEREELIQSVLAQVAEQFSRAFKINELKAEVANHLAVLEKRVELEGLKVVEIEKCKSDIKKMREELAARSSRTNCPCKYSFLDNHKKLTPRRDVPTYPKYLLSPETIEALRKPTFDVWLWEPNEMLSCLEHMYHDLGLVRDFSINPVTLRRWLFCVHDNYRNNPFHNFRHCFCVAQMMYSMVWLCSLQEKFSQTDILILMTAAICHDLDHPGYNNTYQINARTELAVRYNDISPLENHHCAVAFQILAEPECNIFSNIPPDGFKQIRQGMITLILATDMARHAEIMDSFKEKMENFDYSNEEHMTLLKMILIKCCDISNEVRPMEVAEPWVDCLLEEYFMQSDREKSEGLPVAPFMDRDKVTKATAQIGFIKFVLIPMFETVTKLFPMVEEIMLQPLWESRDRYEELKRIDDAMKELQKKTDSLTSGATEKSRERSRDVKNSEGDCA

For the compound `COC(C)(C)Cc1ccc(-c2c(C)nc3c(N4CCOCC4)ccnn23)cn1` [compound 3, 3-[6-(2-methoxy-2-methylpropyl)-3-pyridinyl]-2-methyl-8-(4-morpholinyl)-imidazo[1,2-b]pyridazine], the IC50 in [1] (setting [8]) was 0.0263 µM; in [1] (setting [9]) it was 0.0263 µM; at PDE4D3, over 10 µM; at PDE5A3, 7.94 µM; in [2] it was over 10 µM; in assay [3] it was over 10 µM. Besides, the IC50 in assay [4], in assay [5] and in assay [6] was over 10 µM throughout. The figures for the ED50 (in assay [7]; on PDE10) were 0.8 mg/kg and 2 mg/kg, respectively.

`COCCOc1ccc(-c2c(C)nc3c(N4CCOCC4)ccnn23)cn1` [compound 16, 3-[6-(2-methoxyethoxy)-3-pyridinyl]-2-methyl-8-(4-morpholinyl)-imidazo[1,2-b]pyridazine]: the IC50 in assay [1] (setting [8]) is 0.12 µM; in assay [1] (setting [9]), 0.12 µM; at PDE4D3 it was over 10 µM; on PDE5A3, over 10 µM; in [2], over 10 µM; in [3] it was over 10 µM. The IC50 in assay [4], in assay [5] and in assay [6] was over 10 µM in each case. The ED50 (as a rule, the dose that gives a 50% effect, or the effect in half of the subjects) in assay [7] came out at 3.1 mg/kg. The receptor occupancy at 10 mg/kg on PDE10 came to 52%.

On to `Cc1nc2c(N3CCOCC3)ccnn2c1-c1ccc(N2CCOCC2)nc1` [compound 19, 2-methyl-8-(4-morpholinyl)-3-[6-(4-morpholinyl)-3-pyridinyl]-imidazo[1,2-b]pyridazine], for which the IC50 was 0.107 µM in [1] (setting [8]); 0.107 µM in assay [1] (setting [9]); over 10 µM on PDE4D3; over 10 µM at PDE5A3; over 10 µM in assay [2]; over 10 µM in [3]. Further, the IC50 in assay [4], in assay [5] and in [6] was over 10 µM each time. The ED50 in assay [7] came to 5 mg/kg. Moreover, the receptor occupancy at 10 mg/kg at PDE10 amounted to 57%.

As for `COCCc1ccc(-c2c(C3CC3)nc3c(N4CCOCC4)ccnn23)cn1` [compound 22, 2-cyclopropyl-3-[6-(2-methoxyethyl)-3-pyridinyl]-8-(4-morpholinyl)-imidazo[1,2-b]pyridazine], the IC50 is 0.0562 µM in assay [1] (setting [8]); 0.0562 µM in assay [1] (setting [9]); 2.75 µM on PDE4D3; 3.47 µM at PDE5A3; 5.89 µM in [2]; over 50.1 µM in assay [3]. Besides, the IC50 was 28.2 µM in assay [4], over 50.1 µM in assay [5] and 6.76 µM in [6]. Moreover, the median effective dose (ED50) in assay [7] was determined as 0.5 mg/kg; on PDE10 it was 0.94 mg/kg.

Take `CCc1ccc(-c2c(C)nc3c(N4CCOCC4)ccnn23)cn1` [compound 28, 3-(6-ethyl-3-pyridinyl)-2-methyl-8-(4-morpholinyl)-imidazo[1,2-b]pyridazine]: the IC50 in assay [1] (setting [8]) is 0.0832 µM; in [1] (setting [9]), 0.0832 µM; at PDE4D3, 13.2 µM; on PDE5A3 it was 13.8 µM; in assay [2] it was 26.9 µM; in assay [3], over 100 µM. The IC50 in assay [4] is 25.7 µM; in assay [5], 30.2 µM; in assay [6], 30.2 µM. In addition, the ED50 in assay [7] amounted to 1.2 mg/kg; on PDE10, 1.1 mg/kg.

For `Cc1nc2c(N3CCOCC3)ccnn2c1-c1ccc(N2CCNCC2)nc1` [compound 30, 2-methyl-8-(4-morpholinyl)-3-[6-(1-piperazinyl)-3-pyridinyl]-imidazo[1,2-b]pyridazine], the IC50 is 0.123 µM in assay [1] (setting [8]); 0.123 µM in assay [1] (setting [9]); over 10 µM on PDE4D3; over 10 µM on PDE5A3; over 10 µM in assay [2]; over 10 µM in assay [3]. Further, the IC50 in assay [4], in assay [5] and in assay [6] was over 10 µM in each case. Besides, the ED50 was 7.1 mg/kg in assay [7] and over 10 mg/kg on PDE10. In addition, on PDE10 (dose response sc, data between brackets), the “% occupancy at the highest dose tested” value is 6%.

Take `COC(C)(C)Cn1cc(-c2c(C3CC3)nc3c(-c4ccncc4)ccnn23)cn1` [compound 143, 2-cyclopropyl-3-[1-(2-methoxy-2-methylpropyl)-1H-pyrazol-4-yl]-8-(4-pyridinyl)-imidazo[1,2-b]pyridazine]: the IC50 is 0.0174 µM in assay [1] (setting [8]); 0.0174 µM in assay [1] (setting [9]); 5.13 µM on PDE4D3; 0.646 µM on PDE5A3; 3.98 µM in [2]; over 10 µM in [3]. Moreover, the IC50 in [4] was 5.89 µM; in [5] it was 1.45 µM; in assay [6], 1.95 µM. In addition, the ED50 in assay [7] is 1.2 mg/kg.
